Measurements taken from ChEMBL document CHEMBL4725408, “Antibacterial Spiropyrimidinetriones with N-Linked Azole Substituents on a Benzisoxazole Scaffold Targeting DNA Gyrase” (J Med Chem, 2020).
In brackets after ≈: the same amount, converted by molar mass. Activity calls are given as the source filed them. The rule behind the calls is not given here.

Tests used:
Haemophilus influenzae = test: Antibacterial activity against Haemophilus influenzae ARC737 by broth microdilution method; format: functional
[1] = Volume of distribution at steady state in Wistar Han rat at 3 mg/kg, iv administered as 15 mins infusion by LC-MS/MS analysis; format: ADME, organism-based; conditions: in vivo, read-out: Vdss
Staphylococcus aureus [2] = test: Antibacterial activity against methicillin sensitive Staphylococcus aureus ARC516 infected in CD-1 mouse neutropenic thigh infection model assessed as reduction in colony forming unit at 10 to 25 mg/kg, ip measured after 24 hrs; format: functional, organism-based
[3] = n-octanol/phosphate buffer partition coefficient, log D of the compound at pH 7.4 measured after 1 hr by UV-LC/MS based shake flask method; format: physicochemical
[4] = Oral bioavailability in Wistar Han rat at 10 mg/kg by LC-MS/MS analysis; format: ADME, organism-based; conditions: in vivo
[5] = Protein binding in mouse plasma assessed as unbound fraction at 10 uM measured after 16 hrs by LC-MS/MS based equilibrium dialysis method; format: ADME, cell-free
Staphylococcus aureus [6] = test: Antibacterial activity against methicillin sensitive Staphylococcus aureus ARC516 by broth microdilution method; format: functional
[7] = Ratio of MIC for antibacterial activity against methicillin/quinolone-resistant Staphylococcus aureus ARC517 to protein binding in human plasma assessed as unbound fraction
Staphylococcus aureus [8] = test: Antibacterial activity against methicillin sensitive Staphylococcus aureus ARC516 infected in CD-1 mouse neutropenic thigh infection model assessed as log reduction in colony forming unit at 50 to 75 mg/kg, ip measured after 24 hrs relative to initial treatment control; format: functional; conditions: dose mg/kg 50-75
Streptococcus pneumoniae = test: Antibacterial activity against Streptococcus pneumoniae ARC548 by broth microdilution method; format: functional
[9] = Protein binding in rat plasma assessed as unbound fraction at 10 uM measured after 16 hrs by LC-MS/MS based equilibrium dialysis method; format: ADME, cell-free
[10] = Plasma clearance in CD-1 mouse at 3 mg/kg, iv administered as 15 mins infusion by LC-MS/MS analysis; format: ADME, organism-based; conditions: in vivo, 0.25 h
L5178Y = test: Genotoxicity in mouse L5178Y cells using DAPI staining by microscopy based micronucleation assay; format: toxicity, cell-based
Staphylococcus aureus [11] = test: Antibacterial activity against methicillin sensitive Staphylococcus aureus ARC516 in presence of human serum by broth microdilution method; format: functional
[12] = Unbound plasma clearance in CD-1 mouse at 3 mg/kg, iv administered as 15 mins infusion by LC-MS/MS analysis; format: ADME, organism-based; conditions: in vivo, 0.25 h
Escherichia coli = test: Antibacterial activity against Escherichia coli ARC523 by broth microdilution method; format: functional
Staphylococcus aureus [13] = test: Antibacterial activity against methicillin sensitive Staphylococcus aureus ARC516 infected in CD-1 mouse neutropenic thigh infection model assessed as log reduction in colony forming unit at 50 to 75 mg/kg, ip measured after 24 hrs relative to untreated control; format: functional; conditions: dose mg/kg 50-75
[14] = Inhibition of recombinant Escherichia coli DNA gyrase AB expressed in Escherichia coli BL21 (DE3) using relaxed pJT519 DNA as substrate preincubated for 20 mins followed by 5'-BODIPY-TMR-TTCTTCTTCT addition and measured after 1 hr by fluorescence anisotropy
[15] = Solubility of the compound by high throughput solubility assay; format: physicochemical
[16] = Oral bioavailability in CD-1 mouse at 10 mg/kg by LC-MS/MS analysis; format: ADME, organism-based; conditions: in vivo
Staphylococcus aureus [17] = test: Antibacterial activity against methicillin/quinolone-resistant Staphylococcus aureus ARC517 by broth microdilution method; format: functional
[18] = Protein binding in human plasma assessed as unbound fraction at 10 uM measured after 16 hrs by LC-MS/MS based equilibrium dialysis method; format: ADME, cell-free
Streptococcus pyogenes = test: Antibacterial activity against Streptococcus pyogenes ARC838 by broth microdilution method; format: functional
[19] = Half life in Wistar Han rat at 3 mg/kg, iv administered as 15 mins infusion by LC-MS/MS analysis; format: ADME, organism-based; conditions: in vivo
[20] = Unbound plasma clearance in Wistar Han rat at 3 mg/kg, iv administered as 15 mins infusion by LC-MS/MS analysis; format: ADME, organism-based; parameters: unit not given here; conditions: in vivo, 0.25 h
[21] = Plasma clearance in Wistar Han rat at 3 mg/kg, iv administered as 15 mins infusion by LC-MS/MS analysis; format: ADME, organism-based; parameters: unit not given here; conditions: in vivo, 0.25 h

C[C@@H]1CN2c3c(cc4c(-n5cncn5)noc4c3F)CC3(C(=O)NC(=O)NC3=O)[C@H]2[C@H](C)O1
MIC (Haemophilus influenzae): 0.39 µM (≈ 0.178 µg/mL) | Vd [1]: 1.9 L/kg | Activity (Staphylococcus aureus [2]): Active | logD at 1 h [3]: 1.7 | bioavailability [4]: 62% | fraction unbound at 16 h, 10 µM [5]: 0.12 | MIC (Staphylococcus aureus [6]): 0.049 µM (≈ 0.0223 µg/mL) | Ratio [7]: 1.4 | log(activity) (Staphylococcus aureus [8]): >2 | MIC (Streptococcus pneumoniae): 0.39 µM (≈ 0.178 µg/mL) | fraction unbound at 16 h, 10 µM [9]: 0.1 | CL [10]: 1.26 mL/h/kg | NOAEL (L5178Y): < 6 µM | MIC (Staphylococcus aureus [11]): < 0.2 µM | CL free [12]: 10.5 mL/h/kg | MIC (Escherichia coli): 12.5 µM (≈ 5.69 µg/mL) | log(activity) (Staphylococcus aureus [13]): 4 | IC50 [14]: 0.22 µM | solubility [15]: 250 µM (≈ 114 µg/mL) | bioavailability [16]: 37% | MIC (Staphylococcus aureus [17]): 0.2 µM (≈ 0.0911 µg/mL) | fraction unbound at 16 h, 10 µM [18]: 0.13 | MIC (Streptococcus pyogenes): 0.39 µM (≈ 0.178 µg/mL) | half-life [19]: 2.41 h

COCc1ncnn1-c1noc2c(F)c3c(cc12)CC1(C(=O)NC(=O)NC1=O)[C@H]1[C@H](C)O[C@H](C)CN31
MIC (Haemophilus influenzae): 0.78 µM (≈ 0.39 µg/mL) | logD at 1 h [3]: 1.7 | MIC (Staphylococcus aureus [6]): < 0.2 µM | MIC (Streptococcus pneumoniae): 0.78 µM (≈ 0.39 µg/mL) | NOAEL (L5178Y): 12 µM | MIC (Staphylococcus aureus [11]): 0.39 µM | MIC (Escherichia coli): 70 µM (≈ 35 µg/mL) | CL free [20]: 120 | CL [21]: 17 | IC50 [14]: 1.1 µM | solubility [15]: 890 µM (≈ 445 µg/mL) | MIC (Staphylococcus aureus [17]): 0.39 µM (≈ 0.195 µg/mL) | fraction unbound at 16 h, 10 µM [18]: 0.14 | MIC (Streptococcus pyogenes): 0.78 µM (≈ 0.39 µg/mL)

CNc1ncnn1-c1noc2c(F)c3c(cc12)CC1(C(=O)NC(=O)NC1=O)[C@H]1[C@H](C)O[C@H](C)CN31
MIC (Haemophilus influenzae): 0.39 µM (≈ 0.189 µg/mL) | logD at 1 h [3]: 2.1 | MIC (Staphylococcus aureus [6]): 0.049 µM (≈ 0.0237 µg/mL) | MIC (Streptococcus pneumoniae): 0.19 µM (≈ 0.092 µg/mL) | NOAEL (L5178Y): 3 µM | MIC (Staphylococcus aureus [11]): < 0.2 µM | MIC (Escherichia coli): 16 µM (≈ 7.75 µg/mL) | CL free [20]: 190 | CL [21]: 32 | IC50 [14]: 0.071 µM | solubility [15]: 280 µM (≈ 136 µg/mL) | MIC (Staphylococcus aureus [17]): 0.2 µM (≈ 0.0969 µg/mL) | fraction unbound at 16 h, 10 µM [18]: 0.08 | MIC (Streptococcus pyogenes): 0.19 µM (≈ 0.092 µg/mL)

C[C@@H]1CN2c3c(cc4c(-n5ncnc5CN(C)C)noc4c3F)CC3(C(=O)NC(=O)NC3=O)[C@H]2[C@H](C)O1
MIC (Haemophilus influenzae): 1.6 µM (≈ 0.82 µg/mL) | logD at 1 h [3]: 0.93 | MIC (Staphylococcus aureus [6]): < 0.2 µM | MIC (Streptococcus pneumoniae): 1.6 µM (≈ 0.82 µg/mL) | MIC (Staphylococcus aureus [11]): 0.39 µM | MIC (Escherichia coli): 50 µM (≈ 25.6 µg/mL) | CL free [20]: 110 | CL [21]: 23 | IC50 [14]: 0.59 µM | solubility [15]: > 1000 µM | MIC (Staphylococcus aureus [17]): 0.78 µM (≈ 0.4 µg/mL) | fraction unbound at 16 h, 10 µM [18]: 0.18 | MIC (Streptococcus pyogenes): 1.6 µM (≈ 0.82 µg/mL)

C[C@@H]1CN2c3c(cc4c(-n5ccnc5)noc4c3F)CC3(C(=O)NC(=O)NC3=O)[C@H]2[C@H](C)O1 (racemic)
logD at 1 h [3]: 2 | MIC (Staphylococcus aureus [6]): 1.56 µM (≈ 0.709 µg/mL) | Ratio [7]: 400 | MIC (Staphylococcus aureus [11]): 12.5 µM | MIC (Escherichia coli): 50 µM (≈ 22.7 µg/mL) | IC50 [14]: 0.49 µM | solubility [15]: 12 µM (≈ 5.45 µg/mL) | MIC (Staphylococcus aureus [17]): 12.5 µM (≈ 5.68 µg/mL) | fraction unbound at 16 h, 10 µM [18]: 0.031

C[C@@H]1CN2c3c(cc4c(-n5cncn5)noc4c3Cl)CC3(C(=O)NC(=O)NC3=O)[C@H]2[C@H](C)O1
MIC (Haemophilus influenzae): 0.78 µM (≈ 0.368 µg/mL) | logD at 1 h [3]: 2 | MIC (Staphylococcus aureus [6]): < 0.2 µM | MIC (Streptococcus pneumoniae): 0.39 µM (≈ 0.184 µg/mL) | NOAEL (L5178Y): < 6 µM | MIC (Staphylococcus aureus [11]): 0.39 µM | MIC (Escherichia coli): 12 µM (≈ 5.66 µg/mL) | CL free [20]: 156 | CL [21]: 11.6 | IC50 [14]: 0.12 µM | solubility [15]: 420 µM (≈ 198 µg/mL) | MIC (Staphylococcus aureus [17]): 0.39 µM (≈ 0.184 µg/mL) | fraction unbound at 16 h, 10 µM [18]: 0.074 | MIC (Streptococcus pyogenes): 0.39 µM (≈ 0.184 µg/mL)
